Assay results as given in US4238491A (priority 1977, dated 1980).
Structures can show the parent of a compound that is named as a salt. Where two headings read alike, the source gives them in different places.

Key:
blood pressure of SHR = test: Antihypertensive effect by single administration, SHR, direct cannulation; type: in vivo, rat (spontaneously hypertensive rats; conditions: for Rate of Effects (relative to MR): from DB20; for ED (20% blood pressure decrease): Rattus norvegicus, read-out: DB20 (20% blood pressure descending dose)
Experimental: The effect was examined through both direct and modified tail-cuff methods using male SHRs aged 25 to 30 weeks and weighing about 300 g.
In the direct cannulation method, polyethylene cannules were inserted in femoral arteries of the conscious unanesthesized SHRs under back-fixation,and MR solution was administered in an amount of 0.1 mg/100 g of weight for venous injection, and 1 ml/100 g of weight for oral administration. Changes in the blood pressure over 6 hours were measured with a multi-purpose polygraph RM-85 made by NIHON KODEN Co., Ltd. MR was dissolved in 0.9% NaCl aqueous solution with 1 N-HCl, and the solution was neutralized for use.

hypertension = conditions: cited from earlier work; for antihypertensive effect / side effects: remedies for hypertension
in vivo = type: in vivo, rat (SD (SPF)); conditions: rat, in vivo; oral sub-acute, rats; read-out: ineffective dose
Experimental: All the rats were observed daily and general symptoms noted. Weight was measured daily, average food-intake once every three days, and average water-intake once every two days.

rats = conditions: in connection with RCN; cited from earlier work
[1] = converted from FIG. 15 data to 20 mg/kg basis
Experimental: Blood was drawn from branchial vein of dogs, vein of ear of rabbits and carotic artery of rats after slaughter. Urine was collected with urine bladder catheter for rabbits and metabolic cages for rats. Gathering bile was performed with biliary duct cannulation without anesthesia.

| SMILES | Rate of Effects (relative to MR) (blood pressure of SHR; I.V.) | Rate of Effects (relative to MR) (blood pressure of SHR; P.O.) | ED (20% blood pressure decrease) (blood pressure of SHR; iv) | ED (20% blood pressure decrease) (blood pressure of SHR; po) | other results |
| --- | --- | --- | --- | --- | --- |
| NS(=O)(=O)c1cc2c(cc1Cl)NC(C(Cl)Cl)NS2(=O)=O (stereo not shown) [Trichlormethiazide] | 0.05 | 0.07 | – | – | ED (20% blood pressure decrease) (blood pressure of SHR; iv, I.V.): 79.8 mg/kg; ED (20% blood pressure decrease) (blood pressure of SHR; po, P.O.): 150 mg/kg |
| C[N+](C)(C)CCCCCC[N+](C)(C)C [Hexamethonium chloride] | 0.08 | 0.04 | 39.7 mg/kg | 320 mg/kg | – |
| COC(=O)[C@H]1[C@H]2C[C@@H]3c4[nH]c5cc(OC)ccc5c4CCN3C[C@H]2C[C@@H](OC(=O)c2cc(OC)c(OC)c(OC)c2)[C@@H]1OC [RSP, Reserpine] | 17.7 | 3.11 | 0.2 mg/kg | 3.8 mg/kg | antihypertensive effect (hypertension): prolonged antihypertensive effect; side effects (hypertension): uneasiness due to central nervous system depression, depressed state and loss of vitality |
| COc1cc2[nH]c3c(c2cc1OC)CCN1C[C@H]2[C@H](C)OC=C(C(=O)OCCN(C)C)[C@H]2C[C@H]31.Cl.Cl [Dimethylaminoethyl reserpilinate dihydrochloride] | 0.01 | 0.02 | – | – | DB20 (20% blood pressure descending dose) (blood pressure of SHR; I.V.): 415.7 mg/kg; DB20 (20% blood pressure descending dose) (blood pressure of SHR; P.O.): 625.2 mg/kg |
| C[C@](N)(Cc1ccc(O)c(O)c1)C(=O)O [L-alpha-methyl-dopa] | 0.01 | 0.01 | – | – | ED (20% blood pressure decrease) (blood pressure of SHR; iv, I.V.): 303 mg/kg; ED (20% blood pressure decrease) (blood pressure of SHR; po, P.O.): 1740 mg/kg |
| NNc1nncc2ccccc12 [Hydralazine hydrochloride] | 11.7 | 1.85 | 0.3 mg/kg | 6.4 mg/kg | – |
| COC(=O)[C@H]1[C@H]2C[C@@H]3c4[nH]c5cc(OC)ccc5c4CCN3C[C@H]2C[C@@H](OC(=O)/C=C/c2cc(OC)c(OC)c(OC)c2)[C@@H]1OC [RCN, Rescinnamin] | – | – | 1.3 mg/kg | 9.7 mg/kg | NOAEL (in vivo): 6 mg/kg; pathological changes in adrenal and liver (rats): not reported; antihypertensive effect (hypertension): prolonged antihypertensive effect; side effects (hypertension): uneasiness due to central nervous system depression, depressed state and loss of vitality; pathological change of stomach mucous (hypertension; when RCN is used): often occurs; Area under the Curve of MR Content in Serum [1]: 20.2 |
